Experimental data from US20260337208A1, “HETEROCYCLIC DERIVATIVES AS JANUS KINASE INHIBITORS” (CHIESI FARMACEUTICI S.P.A., priority 2022, published 2026).

Columns and labels:
[1] = cited from earlier work; for admission rate of the intensive care unit / incidence of acute respiratory distress syndrome (ARDS) / risk of mortality / use of invasive mechanical ventilation: COVID-19
[2] = RA patients, including a subgroup with interstitial lung disease; cited from earlier work
[3] = target: JAK1 (Homo sapiens, UniProt P23458); assay: Biochemical potency on JAK1, TR-FRET (LANCE Ultra kinase assay); conditions: ATP corresponding to Km; cell-free; read-out: JAK1 inhibitory activity (pIC50) (converted)
JAK1, sequence (P23458 whole entry): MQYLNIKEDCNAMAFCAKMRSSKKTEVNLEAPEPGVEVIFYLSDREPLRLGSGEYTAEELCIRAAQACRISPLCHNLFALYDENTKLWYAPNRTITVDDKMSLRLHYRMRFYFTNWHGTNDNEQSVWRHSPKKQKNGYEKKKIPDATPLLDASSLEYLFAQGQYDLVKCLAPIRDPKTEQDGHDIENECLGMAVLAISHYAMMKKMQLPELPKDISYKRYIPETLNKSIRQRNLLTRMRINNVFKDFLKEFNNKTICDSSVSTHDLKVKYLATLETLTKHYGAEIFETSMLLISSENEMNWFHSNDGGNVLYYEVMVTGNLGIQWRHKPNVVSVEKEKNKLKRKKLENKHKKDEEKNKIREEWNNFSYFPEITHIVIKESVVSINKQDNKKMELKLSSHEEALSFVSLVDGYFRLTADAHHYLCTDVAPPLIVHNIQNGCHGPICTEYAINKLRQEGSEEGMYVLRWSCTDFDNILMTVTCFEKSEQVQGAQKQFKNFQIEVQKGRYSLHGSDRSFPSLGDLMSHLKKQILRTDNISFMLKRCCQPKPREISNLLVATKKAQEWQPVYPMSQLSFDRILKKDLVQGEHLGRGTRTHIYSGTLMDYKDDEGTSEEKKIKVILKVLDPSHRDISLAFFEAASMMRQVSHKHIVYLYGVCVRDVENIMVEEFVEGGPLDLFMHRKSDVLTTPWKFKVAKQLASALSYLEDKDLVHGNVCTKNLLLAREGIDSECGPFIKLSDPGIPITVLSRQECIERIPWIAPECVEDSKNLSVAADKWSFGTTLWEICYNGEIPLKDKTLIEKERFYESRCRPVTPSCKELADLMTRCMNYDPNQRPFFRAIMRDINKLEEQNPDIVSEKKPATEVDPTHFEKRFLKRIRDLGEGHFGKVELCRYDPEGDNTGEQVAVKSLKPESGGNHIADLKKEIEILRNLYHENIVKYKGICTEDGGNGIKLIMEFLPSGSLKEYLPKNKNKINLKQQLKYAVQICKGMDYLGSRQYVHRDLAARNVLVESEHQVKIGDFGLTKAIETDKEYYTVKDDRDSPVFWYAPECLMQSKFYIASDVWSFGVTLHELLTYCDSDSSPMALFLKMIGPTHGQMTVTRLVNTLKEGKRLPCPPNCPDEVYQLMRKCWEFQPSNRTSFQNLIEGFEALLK
How it was run: (§1)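 ULight-JAK-1 (Tyr1023) peptide phosphorylation at Km ATP, 1.5 h r.t.; substrate solution held peptide 30/50/20/10 nM and ATP 20/0.7/0.2/12 μM, enzyme solution 0.15/0.083/0.025/0.144 ng/μL (JAK1/JAK2/JAK3/TYK2). EDTA stop, Eu-PT66 antibody TR-FRET read at 665 nm; 11-point 5-fold dilutions from 20 μM; IC50 by variable-slope fit.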

[4] = target: JAK2 (Homo sapiens, UniProt O60674); assay: Biochemical potency on JAK2, TR-FRET (LANCE Ultra kinase assay); conditions: ATP corresponding to Km; cell-free; read-out: JAK2 inhibitory activity (pIC50) (converted)
JAK2, sequence (O60674 whole entry): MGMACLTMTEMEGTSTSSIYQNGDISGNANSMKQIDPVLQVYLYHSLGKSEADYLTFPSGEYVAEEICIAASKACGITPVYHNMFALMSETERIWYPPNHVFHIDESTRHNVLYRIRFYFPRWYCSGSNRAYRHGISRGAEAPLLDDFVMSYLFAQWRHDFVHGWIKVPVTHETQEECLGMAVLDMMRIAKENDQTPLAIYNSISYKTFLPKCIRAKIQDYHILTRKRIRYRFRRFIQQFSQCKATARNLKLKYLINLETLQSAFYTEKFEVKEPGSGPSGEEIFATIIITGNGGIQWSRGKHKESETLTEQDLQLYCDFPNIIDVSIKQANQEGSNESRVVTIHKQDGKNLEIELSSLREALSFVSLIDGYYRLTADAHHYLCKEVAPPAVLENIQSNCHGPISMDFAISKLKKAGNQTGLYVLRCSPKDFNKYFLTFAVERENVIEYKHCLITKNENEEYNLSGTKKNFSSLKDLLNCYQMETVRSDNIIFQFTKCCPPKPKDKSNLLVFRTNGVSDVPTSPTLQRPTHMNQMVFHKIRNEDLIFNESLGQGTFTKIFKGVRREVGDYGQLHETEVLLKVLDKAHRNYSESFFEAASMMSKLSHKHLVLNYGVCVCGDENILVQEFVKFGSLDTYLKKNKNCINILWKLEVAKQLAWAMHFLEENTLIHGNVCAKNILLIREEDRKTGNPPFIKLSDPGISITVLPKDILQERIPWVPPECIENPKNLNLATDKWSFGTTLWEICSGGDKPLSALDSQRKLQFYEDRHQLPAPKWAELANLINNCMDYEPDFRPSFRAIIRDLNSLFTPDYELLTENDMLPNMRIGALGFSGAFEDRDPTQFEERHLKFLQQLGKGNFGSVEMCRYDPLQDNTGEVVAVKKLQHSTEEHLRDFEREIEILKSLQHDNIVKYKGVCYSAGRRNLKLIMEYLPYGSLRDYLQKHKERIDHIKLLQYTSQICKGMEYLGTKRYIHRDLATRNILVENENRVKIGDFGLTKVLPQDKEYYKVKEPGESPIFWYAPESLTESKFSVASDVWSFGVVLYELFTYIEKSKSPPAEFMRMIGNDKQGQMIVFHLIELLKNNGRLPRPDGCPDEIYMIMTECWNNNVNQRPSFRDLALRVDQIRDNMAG
How it was run: as §1

[5] = target: TYK2 (Homo sapiens, UniProt P29597); assay: Biochemical potency on Tyk2, TR-FRET (LANCE Ultra kinase assay); conditions: ATP corresponding to Km; cell-free; read-out: TYK2 inhibitory activity (pIC50) (converted)
TYK2, sequence (P29597 whole entry): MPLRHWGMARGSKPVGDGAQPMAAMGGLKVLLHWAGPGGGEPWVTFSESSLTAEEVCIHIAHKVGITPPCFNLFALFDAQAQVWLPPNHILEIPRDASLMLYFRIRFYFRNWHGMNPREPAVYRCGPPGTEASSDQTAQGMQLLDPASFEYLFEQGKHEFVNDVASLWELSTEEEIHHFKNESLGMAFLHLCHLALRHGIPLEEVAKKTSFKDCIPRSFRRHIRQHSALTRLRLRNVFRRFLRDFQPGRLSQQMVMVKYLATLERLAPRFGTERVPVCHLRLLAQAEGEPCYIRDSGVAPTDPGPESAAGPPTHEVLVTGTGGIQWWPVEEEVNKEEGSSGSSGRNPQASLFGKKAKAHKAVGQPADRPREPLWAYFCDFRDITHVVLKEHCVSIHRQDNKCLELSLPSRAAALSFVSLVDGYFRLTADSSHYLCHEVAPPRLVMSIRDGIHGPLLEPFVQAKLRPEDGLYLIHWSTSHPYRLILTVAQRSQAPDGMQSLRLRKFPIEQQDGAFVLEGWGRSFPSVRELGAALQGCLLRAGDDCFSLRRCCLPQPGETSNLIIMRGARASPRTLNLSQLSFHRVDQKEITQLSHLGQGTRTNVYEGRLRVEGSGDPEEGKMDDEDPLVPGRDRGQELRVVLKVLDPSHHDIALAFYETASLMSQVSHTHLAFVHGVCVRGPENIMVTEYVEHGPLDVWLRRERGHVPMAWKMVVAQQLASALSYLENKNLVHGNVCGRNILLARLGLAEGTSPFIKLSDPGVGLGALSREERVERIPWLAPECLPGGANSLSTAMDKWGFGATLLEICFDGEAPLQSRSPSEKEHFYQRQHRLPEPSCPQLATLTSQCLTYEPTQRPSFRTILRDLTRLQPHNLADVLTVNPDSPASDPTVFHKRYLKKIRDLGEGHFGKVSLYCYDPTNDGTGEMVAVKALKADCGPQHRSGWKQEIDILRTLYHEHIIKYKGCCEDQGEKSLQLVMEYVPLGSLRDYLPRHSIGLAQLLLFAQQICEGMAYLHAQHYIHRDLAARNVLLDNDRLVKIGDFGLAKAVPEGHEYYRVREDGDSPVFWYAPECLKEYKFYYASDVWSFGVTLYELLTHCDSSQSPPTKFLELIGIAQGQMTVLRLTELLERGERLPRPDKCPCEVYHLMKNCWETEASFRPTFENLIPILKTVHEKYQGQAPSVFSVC
How it was run: as §1

[6] = target: T1, JAK3 (Homo sapiens, UniProt P52333); assay: Biochemical potency on JAK3, TR-FRET (LANCE Ultra kinase assay); conditions: ATP corresponding to Km; cell-free; read-out: JAK3 inhibitory activity (pIC50) (converted)
T1 sequence (P52333 1-1124): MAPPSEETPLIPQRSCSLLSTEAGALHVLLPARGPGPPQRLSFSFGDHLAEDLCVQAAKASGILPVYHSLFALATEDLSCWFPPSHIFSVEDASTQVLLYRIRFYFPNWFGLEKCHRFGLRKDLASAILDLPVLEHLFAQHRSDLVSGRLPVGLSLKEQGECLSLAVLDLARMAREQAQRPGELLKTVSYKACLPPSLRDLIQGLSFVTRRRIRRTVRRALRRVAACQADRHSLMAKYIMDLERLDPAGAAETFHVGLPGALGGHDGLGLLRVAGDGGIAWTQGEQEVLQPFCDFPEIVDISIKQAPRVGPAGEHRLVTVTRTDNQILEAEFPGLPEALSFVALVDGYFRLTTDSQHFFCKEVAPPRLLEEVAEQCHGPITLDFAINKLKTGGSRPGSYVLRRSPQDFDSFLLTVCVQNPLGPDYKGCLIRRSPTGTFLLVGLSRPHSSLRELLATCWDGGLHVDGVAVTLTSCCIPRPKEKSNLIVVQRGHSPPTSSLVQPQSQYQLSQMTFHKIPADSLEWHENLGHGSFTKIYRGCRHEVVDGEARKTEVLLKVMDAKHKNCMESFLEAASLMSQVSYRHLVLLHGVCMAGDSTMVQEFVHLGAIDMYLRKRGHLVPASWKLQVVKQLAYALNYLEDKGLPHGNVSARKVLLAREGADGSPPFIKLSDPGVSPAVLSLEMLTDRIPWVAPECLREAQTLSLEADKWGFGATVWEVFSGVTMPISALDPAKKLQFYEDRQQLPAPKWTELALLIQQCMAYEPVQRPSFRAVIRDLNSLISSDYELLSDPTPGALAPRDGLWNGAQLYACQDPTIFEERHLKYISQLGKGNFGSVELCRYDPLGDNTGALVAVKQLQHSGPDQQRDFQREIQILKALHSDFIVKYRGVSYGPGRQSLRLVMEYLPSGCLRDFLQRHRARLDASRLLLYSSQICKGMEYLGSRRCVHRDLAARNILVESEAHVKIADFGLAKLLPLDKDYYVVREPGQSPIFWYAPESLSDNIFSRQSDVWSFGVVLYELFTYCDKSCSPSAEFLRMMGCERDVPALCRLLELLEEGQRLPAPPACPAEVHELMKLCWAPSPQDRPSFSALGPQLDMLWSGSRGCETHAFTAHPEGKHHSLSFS
How it was run: as §1

[7] = test system: pSTAT6 in BEAS-2B human cell line; assay: Inhibition of IL-13 induced pSTAT6 in BEAS; format: cell-based; conditions: for IC50: Homo sapiens, BEAS-2B, 0.5 h, IL-13 trigger, 30 min, parent compound; for Fold difference parent vs predicted acid metabolite: ratio=IC50 predicted acid metabolite/IC50 ester
How it was run: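 BEAS-2B cells grown 48 h, pre-treated 30 min with compound, then stimulated 30 min with IL-13. Lysate pSTAT6 (Tyr641) measured by sandwich ELISA. Eleven 5-fold dilutions from 10 μM, in duplicate, fitted to IC50.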

[8] = bleomycin-induced fibrosis mouse model; cited from earlier work
[9] = test system: OVA-challenged mice; conditions: given as dry powder; cited from earlier work
[10] = test system: mouse model of chronic exposure to AAH allergens; conditions: cited from earlier work
[11] = in vivo; cited from earlier work
[12] = test system: house dust mite mouse model of asthma; conditions: formulated for being administered as aerosol; cited from earlier work
[13] = in combination with nintedanib; case report; cited from earlier work

| Compound | IC50 [3] [nM] | IC50 [4] [nM] | IC50 [5] [nM] | IC50 [6] [nM] | IC50 [7] [nM] | Fold difference parent vs predicted acid metabolite [7] | other results |
| --- | --- | --- | --- | --- | --- | --- | --- |
| CCS(=O)(=O)N1CC(CC#N)(n2cc(-c3ncnc4[nH]ccc34)cn2)C1 [Baricitinib, baricitinib] |  |  |  |  |  |  | admission rate of the intensive care unit [1]: borderline impact; incidence of acute respiratory distress syndrome (ARDS) [1]: borderline impact; risk of mortality [1]: reduced risk of mortality; use of invasive mechanical ventilation [1]: reduced the use of invasive mechanical ventilation; biomarkers' levels of lung fibrosis and inflammation [2]: reduces the biomarkers' levels of lung fibrosis and inflammation; safety as immune modulator [2]: safe immune modulator |
| CCOC(=O)C1CCN(CCNC(=O)c2nn(-c3cc4c(cc3OC)NCCO4)c3cc(Nc4ncc[nH]c4=O)ncc23)CC1 [Example 58, ethyl 1-(2-(1-(6-methoxy-3,4-dihydro-2H-benzo[b][1,4]oxazin-7-yl)-6-((3-oxo-3,4-dihydropyrazin-2-yl)amino)-1H-pyrazolo[4,3-c]pyridine-3-carboxamido)ethyl)piperidine-4-carboxylate] | ≤ 5.01 | ≤ 5.01 | 5.01 to 50.1 | ≤ 5.01 | 5.01 to 50.1 | kkkk (ratio≥200) |  |
| N#CC[C@H](C1CCCC1)n1cc(-c2ncnc3[nH]ccc23)cn1 [Ruxolitinib, ruxolitinib] |  |  |  |  |  |  | admission rate of the intensive care unit [1]: borderline impact; incidence of acute respiratory distress syndrome (ARDS) [1]: borderline impact; risk of mortality [1]: reduced risk of mortality; use of invasive mechanical ventilation [1]: reduced the use of invasive mechanical ventilation; clinical symptoms and chest computed tomography images ([1]; COVID-19 patients): improved the clinical symptoms and chest computed tomography images; fibrotic lesions in lung [8]: ameliorated the fibrotic lesions in lung; levels of fibrotic molecular markers [8]: reduced levels of fibrotic molecular markers |
| CN(CCC#N)C1CCN(C(=O)Cn2cc(NC(=O)c3cnn4cccnc34)c(-c3cc(Cl)ccc3OC(F)F)n2)CC1 [iJak-381] |  |  |  |  |  |  | BAL eosinophilia [9]: reduced; CCL11 [9]: reduced; Muc5AC [9]: reduced; airway resistance [9]: reduced; BAL eosinophilia [10]: reduced; CCL11 [10]: reduced; CXCL1 [10]: reduced; neutrophilia [10]: reduced |
| C[C@@H]1CCN(C(=O)CC#N)C[C@@H]1N(C)c1ncnc2[nH]ccc12 [tofacitinib] |  |  |  |  |  |  | preventive effect in experimental dermal and pulmonary fibrosis [11]: acted as a preventive agent; eosinophils count [12]: reduced eosinophils count; efficacy and safety in aggressive interstitial lung disease [13]: corroborated the efficacy and safety |

Continued, in another order:

| IC50 [3] [nM] | IC50 [4] [nM] | IC50 [5] [nM] | IC50 [6] [nM] | Compound | IC50 [7] [nM] | Fold difference parent vs predicted acid metabolite [7] | other results |
| --- | --- | --- | --- | --- | --- | --- | --- |
| ≤ 5.01 | ≤ 5.01 | 5.01 to 50.1 | ≤ 5.01 | COc1cc2c(cc1-n1nc(C(=O)NCCN3CCC(C(=O)OCC4(C#N)CC4)CC3)c3cnc(-c4cnn5cccnc45)cc31)OCCN2 [Example 53, (1-cyanocyclopropyl)methyl 1-(2-(1-(6-methoxy-3,4-dihydro-2H-benzo[b][1,4]oxazin-7-yl)-6-(pyrazolo[1,5-a]pyrimidin-3-yl)-1H-pyrazolo[4,3-c]pyridine-3-carboxamido)ethyl)piperidine-4-carboxylate] | ≤ 5.01 | kkkk (ratio≥200) |  |
| ≤ 5.01 | ≤ 5.01 | 5.01 to 50.1 | ≤ 5.01 | COc1cc2c(cc1-n1nc(C(=O)NCCN3CCC(C(=O)OCCCC#N)CC3)c3cnc(-c4cnn5cccnc45)cc31)OCCN2 [Example 54, 3-cyanopropyl 1-(2-(1-(6-methoxy-3,4-dihydro-2H-benzo[b][1,4]oxazin-7-yl)-6-(pyrazolo[1,5-a]pyrimidin-3-yl)-1H-pyrazolo[4,3-c]pyridine-3-carboxamido)ethyl)piperidine-4-carboxylate] | ≤ 5.01 | kkkk (ratio≥200) |  |
| ≤ 5.01 | ≤ 5.01 | 5.01 to 50.1 | ≤ 5.01 | COc1cc2c(cc1-n1nc(C(=O)NCCN3CC[C@@H](C(=O)O[C@@H]4CCN(CCF)C4)C3)c3cnc(-c4cnn5cccnc45)cc31)OCCN2 [Example 55, (R)-1-(2-fluoroethyl)pyrrolidin-3-yl (R)-1-(2-(1-(6-methoxy-3,4-dihydro-2H-benzo[b][1,4]oxazin-7-yl)-6-(pyrazolo[1,5-a]pyrimidin-3-yl)-1H-pyrazolo[4,3-c]pyridine-3-carboxamido)ethyl)pyrrolidine-3-carboxylate] | 5.01 to 50.1 | kk (100>ratio≥10) |  |
| ≤ 5.01 | ≤ 5.01 | 5.01 to 50.1 | ≤ 5.01 | COc1cc2c(cc1-n1nc(C(=O)NCCN3CC[C@H](C(=O)O[C@@H]4CCN(C)C4)C3)c3cnc(-c4cnn5cccnc45)cc31)OCCN2 [Example 56, (R)-1-methylpyrrolidin-3-yl (S)-1-(2-(1-(6-methoxy-3,4-dihydro-2H-benzo[b][1,4]oxazin-7-yl)-6-(pyrazolo[1,5-a]pyrimidin-3-yl)-1H-pyrazolo[4,3-c]pyridine-3-carboxamido)ethyl)pyrrolidine-3-carboxylate] | 5.01 to 50.1 | kk (100>ratio≥10) |  |
| ≤ 5.01 | ≤ 5.01 | 5.01 to 50.1 | ≤ 5.01 | COc1cc2c(cc1-n1nc(C(=O)NCCN3CCC(C(=O)OC4CN(C(C)C)C4)CC3)c3cnc(-c4cnn5cccnc45)cc31)OCCN2 [Example 57, 1-isopropylazetidin-3-yl 1-(2-(1-(6-methoxy-3,4-dihydro-2H-benzo[b][1,4]oxazin-7-yl)-6-(pyrazolo[1,5-a]pyrimidin-3-yl)-1H-pyrazolo[4,3-c]pyridine-3-carboxamido)ethyl)piperidine-4-carboxylate] | 5.01 to 50.1 | kkk (200>ratio≥100) |  |
| ≤ 5.01 | ≤ 5.01 | 5.01 to 50.1 | ≤ 5.01 | CCSC(=O)C1CCN(CCNC(=O)c2nn(-c3cc4c(cc3OC)NCCO4)c3cc(-c4cnn5cccnc45)ncc23)CC1 [Example 59, S-ethyl 1-(2-(1-(6-methoxy-3,4-dihydro-2H-benzo[b][1,4]oxazin-7-yl)-6-(pyrazolo[1,5-a]pyrimidin-3-yl)-1H-pyrazolo[4,3-c]pyridine-3-carboxamido)ethyl)piperidine-4-carbothioate] | ≤ 5.01 | kkkk (ratio≥200) |  |
